{"source": "patent US20150105409A1", "about": "“HDAC INHIBITORS, ALONE OR IN COMBINATION WITH BTK INHIBITORS, FOR TREATING NONHODGKIN'S LYMPHOMA” (Acetylon Pharmaceticals, Inc., priority 2013, published 2015)", "type_in_all_cases": "cell-based, human", "key": {"Mino cells [1]": {"tested_on": "Mino cells", "assay": "Cell cycle analysis by propidium iodide flow cytometry", "settings": "48 hours, Compound A 13 μM, ibrutinib 10 μM, alone or combined (FIG. 5)", "experimental": "Cells were fixed and stained with propidium iodide (PI) and were analyzed by flow cytometry."}, "Z138 MCL cells": {"tested_on": "Z138 MCL cells", "assay": "CellTiter-Blue cell viability, combination (CI analysis)", "settings": "Z138, 72 hours, single agent", "from_the_text": "Cell viability was next assessed using the CellTiter-Blue reagent (Promega). The results of these experiments are shown in FIG. 8 and in the Table below."}, "Mino cells [2]": {"tested_on": "Mino cells", "assay": "Apoptosis by 7-AAD/Annexin V flow cytometry", "settings": "48 hours, Compound A 3 or 12.5 μM, ibrutinib 10 or 30 μM, alone or combined (FIGS. 2-3)", "from_the_text": "(§1) Annexin/PI flow cytometric analysis was used to determine percentage of apoptotic cells. […]"}, "Z138 cells [3]": {"tested_on": "Z138 cells", "assay": "Apoptosis by 7-AAD/Annexin V flow cytometry", "settings": "Z138, 48 hours; Compound A 3 or 12.5 μM, ibrutinib 10 or 30 μM, alone or combined (FIGS. 2-3)", "from_the_text": "as §1"}, "Mino MCL cells": {"tested_on": "Mino MCL cells", "assay": "CellTiter-Blue cell viability, combination (CI analysis)", "settings": "72 hours, single agent", "from_the_text": "Cell viability was next assessed using the CellTiter-Blue reagent (Promega)."}, "Z138 cells [4]": {"tested_on": "Z138 cells", "assay": "Viability of MCL cells after inhibition of HDAC6"}, "Mino cells [5]": {"tested_on": "Mino cells", "assay": "Viability of MCL cells after inhibition of HDAC6"}, "[6]": {"settings": "at Fa of combination dose 1.3E−6/3.1E−6"}, "[7]": {"settings": "at Fa of combination dose 2.5E−6/6.2E−6"}, "[8]": {"settings": "at Fa of combination dose 5.0E−6/12.5E−6"}, "[9]": {"settings": "at Fa of combination dose 10.0E−6/25.0E−6"}, "[10]": {"settings": "at Fa of combination dose 20.0E−6/50.0E−6"}, "[11]": {"settings": "at Fa of combination dose 78.1E−9/195.3E−9"}, "[12]": {"settings": "at Fa of combination dose 156.3E−9/390.6E−9"}, "[13]": {"settings": "at Fa of combination dose 312.5E−9/781.2E−9"}, "[14]": {"settings": "at Fa of combination dose 625.0E−9/1.6E−6"}}}
{"smiles": "C=CC(=O)N1CCC[C@@H](n2nc(-c3ccc(Oc4ccccc4)cc3)c3c(N)ncnc32)C1", "note": "[ibrutinib, reference compound]", "values": [{"measurement": "cell cycle distribution", "setting": "Mino cells [1]", "value": "little effect on cell cycle distribution"}, {"measurement": "Dm (PCI-32765)", "setting": "Z138 MCL cells; [6]", "value": "56.7E−6"}, {"measurement": "Dm (PCI-32765)", "setting": "Z138 MCL cells; [7]", "value": "146.1E−6"}, {"measurement": "Dm (PCI-32765)", "setting": "Z138 MCL cells; [8]", "value": "376.3E−6"}, {"measurement": "Dm (PCI-32765)", "setting": "Z138 MCL cells; [9]", "value": "969.0E−6"}, {"measurement": "Dm (PCI-32765)", "setting": "Z138 MCL cells; [10]", "value": "2.5E−3"}, {"measurement": "Dm (PCI-32765)", "setting": "Z138 MCL cells; [11]", "value": "1.3E−6"}, {"measurement": "Dm (PCI-32765)", "setting": "Z138 MCL cells; [12]", "value": "3.3E−6"}, {"measurement": "Dm (PCI-32765)", "setting": "Z138 MCL cells; [13]", "value": "8.6E−6"}, {"measurement": "Dm (PCI-32765)", "setting": "Z138 MCL cells; [14]", "value": "22.0E−6"}, {"measurement": "induction of apoptosis", "setting": "Mino cells [2]", "value": "induction of apoptosis"}, {"measurement": "induction of apoptosis", "setting": "Z138 cells [3]", "value": "induction of apoptosis"}, {"measurement": "Dm (PCI-32765)", "setting": "Mino MCL cells; [6]", "value": "5.1E−6"}, {"measurement": "Dm (PCI-32765)", "setting": "Mino MCL cells; [7]", "value": "10.2E−6"}, {"measurement": "Dm (PCI-32765)", "setting": "Mino MCL cells; [8]", "value": "20.5E−6"}, {"measurement": "Dm (PCI-32765)", "setting": "Mino MCL cells; [10]", "value": "83.0E−6"}, {"measurement": "Dm (PCI-32765)", "setting": "Mino MCL cells; [11]", "value": "308.7E−9"}, {"measurement": "Dm (PCI-32765)", "setting": "Mino MCL cells; [12]", "value": "621.3E−9"}, {"measurement": "Dm (PCI-32765)", "setting": "Mino MCL cells; [13]", "value": "1.3E−6"}, {"measurement": "Dm (PCI-32765)", "setting": "Mino MCL cells; [14]", "value": "2.5E−6"}]}
{"smiles": "O=C(CCCCCCNC(=O)c1cnc(N(c2ccccc2)c2ccccc2)nc1)NO", "note": "[Compound A, 2-(diphenylamino)-N-(7-(hydroxyamino)-7-oxoheptyl)pyrimidine-5-carboxamide]", "values": [{"measurement": "cell viability", "setting": "Z138 cells [4]", "value": "decreased viability"}, {"measurement": "cell cycle distribution", "setting": "Mino cells [1]", "value": "little effect on cell cycle distribution"}, {"measurement": "Dm (Cmpd A)", "setting": "Z138 MCL cells; [6]", "value": "1.7E−6"}, {"measurement": "Dm (Cmpd A)", "setting": "Z138 MCL cells; [7]", "value": "3.4E−6"}, {"measurement": "Dm (Cmpd A)", "setting": "Z138 MCL cells; [8]", "value": "6.8E−6"}, {"measurement": "Dm (Cmpd A)", "setting": "Z138 MCL cells; [9]", "value": "13.7E−6"}, {"measurement": "Dm (Cmpd A)", "setting": "Z138 MCL cells; [10]", "value": "27.7E−6"}, {"measurement": "Dm (Cmpd A)", "setting": "Z138 MCL cells; [11]", "value": "100.1E−9"}, {"measurement": "Dm (Cmpd A)", "setting": "Z138 MCL cells; [12]", "value": "202.2E−9"}, {"measurement": "Dm (Cmpd A)", "setting": "Z138 MCL cells; [13]", "value": "408.3E−9"}, {"measurement": "Dm (Cmpd A)", "setting": "Z138 MCL cells; [14]", "value": "824.5E−9"}, {"measurement": "induction of apoptosis", "setting": "Mino cells [2]", "value": "induction of apoptosis"}, {"measurement": "induction of apoptosis", "setting": "Z138 cells [3]", "value": "induction of apoptosis"}, {"measurement": "Dm (Cmpd A)", "setting": "Mino MCL cells; [6]", "value": "1.6E−6"}, {"measurement": "Dm (Cmpd A)", "setting": "Mino MCL cells; [7]", "value": "13.1E−6"}, {"measurement": "Dm (Cmpd A)", "setting": "Mino MCL cells; [8]", "value": "108.1E−6"}, {"measurement": "Dm (Cmpd A)", "setting": "Mino MCL cells; [9]", "value": "894.0E−6"}, {"measurement": "Dm (Cmpd A)", "setting": "Mino MCL cells; [10]", "value": "7.4E−3"}, {"measurement": "Dm (Cmpd A)", "setting": "Mino MCL cells; [11]", "value": "338.3E−12"}, {"measurement": "Dm (Cmpd A)", "setting": "Mino MCL cells; [12]", "value": "2.8E−9"}, {"measurement": "Dm (Cmpd A)", "setting": "Mino MCL cells; [13]", "value": "23.1E−9"}, {"measurement": "Dm (Cmpd A)", "setting": "Mino MCL cells; [14]", "value": "191.2E−9"}, {"measurement": "cell viability", "setting": "Mino cells [5]", "value": "decreased viability"}]}
